Results reported in patent US12440479B2, “Prevention or treatment of chronic organ injury” (GEORG-AUGUST-UNIVERSITAET GOETTINGEN, STIFTUNG …, priority 2018, dated 2025).

Experiments:
[1] = tested on: human proximal tubular epithelial cells (HK2 cells); assay: Human TEC cultures (HK2 cells): ARNT/ALK3 and pSmad1/5/8; type: cell-based; conditions: picomolar FK506
Method: HK-2 (ATTC, Manassas, USA) are immortalized proximal tubule epithelial cells derived from normal adult human kidney. The murine proximal tubular epithelial cell line MCT was generated from the renal cortex of SJL mice (75). All cells were routinely tested negative for the presence of mycoplasma contamination. None of the cell lines used in this manuscript is listed in the ICLAC and NCBI Biosample database of misidentified cell lines. Cells were cultured in Dulbecco's modified Eagle's (DMEM, Gibco, Carlsbad, USA) medium supplemented with 100 µg/mL penicillin, 100 µg/mL streptomycin and 10% heat-inactivated fetal bovine serum (FBS, Sigma, St. Louis, USA) at 37° C. in 5% CO2. For RNA extractions, cells were seeded in 6 well culture plates at 10^5 cells per well in antibiotic free standard growth medium. […] Cells were harvested for further analysis 6 hours after incubation. To examine de novo protein syntheses, cells were again plated in 6 well culture plates as initially described and then pre-treated with the translation blocker Cycloheximide (CHX, 10 μg/mL, Sigma, St. Louis, USA). After one hour of incubation, 200 pM FK506 was applied for additional 6 hours. […] The relative expression levels were calculated using the equation 2^−ddCt.

[2] = tested on: intrarenal ARNT and ALK3 transcription; conditions: GSE1563; regimens including FK506 compared to CsA; cited from earlier work
[3] = target: FKBP12/YY1 (Mus musculus, UniProt P26883); assay: Co-immunoprecipitation after Yy1 pull-down in cultured TECs; type: cell-based; conditions: FK506 added to culture media, IP: Yy1
Method: CoIP was performed with Protein G Immunoprecipitation Kit (Roche, Basel, Switzerland). Protein A/G PLUS Agarose beads (Santa Cruz Biotechnology, Santa Cruz, USA) were used for the lysate pre-cleaning and pull-down. For each CoIP, 2×10^7 MCT cells have been used following the manufacturer's instructions. Yy1 (ab12132, Abcam Biochemicals, Cambridge, UK), Fkbp12 (ab2918, Abcam Biochemicals, Cambridge, UK), Arnt (3718, Cell Signaling, Danvers, USA), GFP (MA5-15256, Thermo Fisher Scientific, Waltham, USA) and myc-tag antibodies (2276, Cell Signaling, Danvers, USA) were used for immunoprecipitation, detection of co-immunoprecipitated Fkbp12 (ab12132, Abcam Biochemicals, Cambridge, UK), Hif1α ([MUT], Sigma, St. Louis, USA), Ahr (MA1-514, Thermo Fisher Scientific, Waltham, USA), GFP (MA5-15256, Thermo Fisher Scientific, Waltham, USA) and myc-tag (2276, Cell Signaling, Danvers, USA) was performed by immunoblotting.

[4] = tested on: murine TECs; assay: Murine TEC cultures (MCT): mRNA expression (qRT-PCR), pSmad1/5/8 immunostaining, proliferation; type: cell-based, mouse
Method: HK-2 (ATTC, Manassas, USA) are immortalized proximal tubule epithelial cells derived from normal adult human kidney. The murine proximal tubular epithelial cell line MCT was generated from the renal cortex of SJL mice (75). All cells were routinely tested negative for the presence of mycoplasma contamination. None of the cell lines used in this manuscript is listed in the ICLAC and NCBI Biosample database of misidentified cell lines. Cells were cultured in Dulbecco's modified Eagle's (DMEM, Gibco, Carlsbad, USA) medium supplemented with 100 µg/mL penicillin, 100 µg/mL streptomycin and 10% heat-inactivated fetal bovine serum (FBS, Sigma, St. Louis, USA) at 37° C. in 5% CO2. For RNA extractions, cells were seeded in 6 well culture plates at 10^5 cells per well in antibiotic free standard growth medium. […] Cells were harvested for further analysis 6 hours after incubation. To examine de novo protein syntheses, cells were again plated in 6 well culture plates as initially described and then pre-treated with the translation blocker Cycloheximide (CHX, 10 μg/mL, Sigma, St. Louis, USA). After one hour of incubation, 200 pM FK506 was applied for additional 6 hours. One night before transfection, MCT cells were seeded in 6 well culture plates at a concentration of 1.5-2×10^5 per well in antibiotic-free DMEM (Gibco, Carlsbad, USA) supplemented with 10% heat-inactivated fetal bovine serum (FBS, Sigma, St. Louis, USA). For knockdown experiments, 60 pmol siRNA (Santa Cruz Biotechnology, Dallas, USA) or scrambled siRNA (scrRNA, Santa Cruz Biotechnology, Santa Cruz, USA) was transfected, for over-expression experiments, 2 μg plasmid DNA was transfected using Lipofectamine 2000 reagent (Invitrogen, Carlsbad, USA). After 4 hours of incubation, transfection medium was replaced by antibiotic-free medium and cells recovered overnight. For stimulation experiments, cells were stimulated the day after with […] FK506 (Abcam Biochemicals, Cambridge, UK) dissolved in DMSO and harvested after 6 hours of incubation for RNA and protein analysis. For SYBR-based real-time PCR, cDNA synthesis was performed by using DNase I digestion (Invitrogen, Carlsbad, USA) and SuperScript II Reverse Transcriptase (Invitrogen, Carlsbad, USA) according to the manufacturer's protocol. 1 μL of reverse-transcribed cDNA was added to the reaction mixture containing the primer pair (200 nmol/L each) and diluted 2× Fast SYBR Green Master Mix (Applied Biosystems, Carlsbad, USA) in a final volume of 20 μL for each PCR reaction. The real-time PCR reactions were performed in a 96-well reaction plate using the StepOne Plus Real-Time System (Applied Biosystems, Carlsbad, USA) and were done in triplicates. An initiation step at 95° C. for 20 seconds was followed by 40 cycles at 95° C. for 3 to seconds and 60° C. for 30 seconds, with one cycle of dissociation at 95° C. for 15 seconds, 60° C. for 60 seconds, and 95° C. for 15 seconds. The intercalation of SYBR Green dye and its fluorescent signal is directly proportional to the amount of amplified DNA and was transformed into the cycle threshold (Ct). For normalization, the Ct values of the housekeeping genes Gapdh and Actb were subtracted from the Ct values of the gene of interest to generate the dCt values. The relative expression levels were calculated using the equation 2^−ddCt.

[5] = FK506 blood concentration measurements (ELISA, whole blood); type: in vivo, mice
Method: FK506 concentration in whole blood samples of mice was measured using colorimetric FK506 Elisa Kit (Abnova, Taipei, […]) according to the manufacturer's protocol. Briefly, 25 μL of whole blood samples and standard solutions containing 0, 2, 10 and 50 ng/mL FK506 were analyzed by OD measurements at 450 nanometer (nm) wavelength.

FKBP12/YY1, sequence (P26883 whole entry): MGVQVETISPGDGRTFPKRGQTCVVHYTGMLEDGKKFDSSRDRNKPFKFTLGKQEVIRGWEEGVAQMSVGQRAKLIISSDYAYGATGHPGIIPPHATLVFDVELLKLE

Structure (SMILES): C=CC[C@@H]1/C=C(\C)C[C@H](C)C[C@H](OC)[C@H]2O[C@@](O)(C(=O)C(=O)N3CCCC[C@H]3C(=O)O[C@H](/C(C)=C/[C@@H]3CC[C@@H](O)[C@H](OC)C3)[C@H](C)[C@@H](O)CC1=O)[C@H](C)C[C@@H]2OC [FK506, tacrolimus]
- ARNT and ALK3 transcription [1]: equally induced
- nuclear pSmad1/5/8 [1]: nuclear accumulation of pSmad1/5/8
- intrarenal ARNT and ALK3 transcription [2]: enhanced
- FKBP12/YY1 interaction [3]: not detectable
- induction of ALK3 transcription ([4]; TECs depleted for HIF1α (Hif1akd) or AHR (Ahrkd)): preserved effectiveness
- mRNA expression levels of AR, ARNT, CEBPB, CREB1, GATA3, MAX (qRT-PCR) ([4]; TECs upon exposure to FK506): increased
- ALK3 transcription or nuclear pSmad1/5/8 accumulation ([4]; TECs with ARNT depleted (Arntkd)): failed to induce
- ALK3 transcription and canonical BMP signaling responses (nuclear pSmad1/5/8) ([4]; TECs with Cycloheximide (CHX, 10 μg/mL)): failed to induce
- ARNT mRNA and protein levels ([4]; TECs with FKBP12 or YY1 depletion, FK506 supplemented): did not additionally induce
- ALK3 transcription and BMP signaling responses ([4]; TECs with YY1 depleted (Yy1kd), FK506 supplemented): did not additionally induce
- ARNT transcription ([4]; cultured TECs, FK506 added to culture media): transcriptional ARNT induction
- pSmad1/5/8 ([4]; murine TECs): accumulation of pSmad1/5/8
- FK506 blood concentration ([5]; 0.02 mg/kg orally per day): 245 ± 73 pg/mL
- FK506 blood concentration ([5]; 0.075 mg/kg orally per day): 452 ± 71 pg/mL
- FK506 blood concentration ([5]; 0.2 mg/kg orally per day): 535 ± 36 pg/mL
